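The compound was tested at five concentrations on cells cultured in 96-well plates, with a 48-hour exposure period. Here, GI50 denotes the concentration required for 50% inhibition of growth.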 Calls of active or inactive are those of the source. Cut-off read from the data, not from the text of the source: active = GI50 up to about 1.1 µM and inactive = higher.
Tests used:
Experiment in all cases: DTP human tumour cell line panel, 48 h
BT-549 = tested on: BT-549
Hs-578T = tested on: Hs-578T
LXFL 529 = tested on: LXFL 529
MDA-MB-435 = tested on: MDA-MB-435
NCI/ADR-RES = tested on: NCI/ADR-RES
T47D = tested on: T47D
RXF 631 = tested on: RXF 631
DU-145 = tested on: DU-145
786-0 = tested on: 786-0

Compound | GI50 (BT-549) | GI50 (Hs-578T) | GI50 (LXFL 529) | GI50 (MDA-MB-435) | GI50 (NCI/ADR-RES) | GI50 (T47D) | GI50 (DU-145) | also measured
CC1CC[P+](c2ccccc2)(c2ccccc2)c2c1ccc1ccccc21 (stereo unspecified) | 0.764 µM (active) | 1.46 µM (inactive) | 0.83 µM (active) | 1.52 µM (inactive) | > 100 µM (inactive) | 0.883 µM (active) | – | –
O=C1CCC23CC(C=CC=C12)n1c(=O)n(-c2ccccc2)c(=O)n13 (stereo unspecified) | – | – | – | – | 38.5 µM (inactive) | – | – | –
Cc1ccc(NC(=O)OCC(COc2ccc(Cl)cc2)OC(=O)Nc2ccc(C)cc2)cc1 (stereo unspecified) | – | – | 23.4 µM (inactive) | – | – | – | – | GI50 (RXF 631): 11.5 µM (inactive)
CCCCCCCCCCCCCC(=O)OC1C(O)C(CO)OC(OC)C1NC(=O)N(CCCl)N=O (stereo unspecified) | – | – | > 100 µM (inactive) | – | – | – | – | –
C1CSCCSCSCCS1 | > 100 µM (inactive) | > 100 µM (inactive) | – | > 100 µM (inactive) | > 100 µM (inactive) | > 100 µM (inactive) | > 100 µM (inactive) | –
c1cncc(O[Si](Oc2cccnc2)(Oc2cccnc2)Oc2cccnc2)c1 | – | – | – | – | – | – | – | GI50 (RXF 631): > 100 µM (inactive)
N#Cc1ccc(C2Oc3ccc(Cl)cc3C=C2[N+](=O)[O-])cc1 (stereo unspecified) | 0.581 µM (active) | 6.32 µM (inactive) | – | 1.73 µM (inactive) | – | 0.34 µM (active) | 2.34 µM (inactive) | –
CCOC(=O)N1C=NC23C(c4ccccc4)C(c4ccccc4)C12C(=O)N(C)C(=O)N3C (stereo unspecified) | – | – | > 100 µM (inactive) | – | – | – | – | GI50 (786-0): > 100 µM (inactive)
N#C[C@H](OC1OC(COC2OC(CO)C(O)C(O)C2O)C(O)C(O)C1O)c1ccccc1 (stereo partly specified) | – | – | – | – | > 250 µM (inactive) | – | – | –
SC1=Nc2ccccc2-c2nc(-c3ccccc3)cc(-c3ccc(Br)cc3)c2C1 | 5.53 µM (inactive) | 0.891 µM (active) | – | 6.73 µM (inactive) | 1.56 µM (inactive) | 1.48 µM (inactive) | 3.48 µM (inactive) | –

From ChEMBL document CHEMBL1201862, “PubChem BioAssay data set” (2004)
